In ChEMBL document CHEMBL3044743, “Synthesis and Phytotoxic Activities of N-Substituted Phenyl Isothiazolone Derivatives” (J Pestic Sci, 2003) one finds Activity and inhibition data, which are given here for twelve compounds.

The test system of one test is Scenedesmus acutus. In words: Phytotoxicity against Scenedesmus acutus assessed as ethane production level per ml of packed cell volume at 10 uM after 20 hr by gas chromatography. In kind it is functional.
Take `CC(C)OC(=O)c1cc(N2C(=O)C3=C(CCCC3)C2=O)ccc1Cl`: the Activity worked out at 12 nmol/mL. Still for that read-out and setting: for `O=C1C2=C(CCCC2)S(=O)(=O)N1c1cc(OC2CCCC2)c(Cl)cc1F` the value was 3 nmol/mL; for `O=c1c2c([s+]([O-])n1-c1cc(OC3CCCC3)c(Cl)cc1F)CCCC2` (stereo not drawn), 0 nmol/mL; for `O=c1c2c(sn1-c1cc(OC3CCCC3)c(Cl)cc1F)CCCC2`, 0 nmol/mL.

In the case of `O=c1c2c(sn1-c1ccc(Cl)cc1)CCCC2`, the Activity was determined as 7 nmol/mL.

Consider `CC(C)OC(=O)c1cc(-n2sc3c(c2=O)CCCC3)ccc1Cl`, for which the Activity was determined as 3 nmol/mL.

As to `O=C1C2=C(CCCC2)S(=O)(=O)N1c1ccc(Cl)cc1`, the Activity amounted to 12 nmol/mL. As for `O=C1C2=C(CCCC2)C(=O)N1c1cc(OC2CCCC2)c(Cl)cc1F`, the Activity came to 12 nmol/mL. Still for that read-out and setting: then `CC(C)OC(=O)c1cc(N2C(=O)C3=C(CCCC3)S2(=O)=O)ccc1Cl`, with 12 nmol/mL; and `O=c1c2c([s+]([O-])n1-c1ccc(Cl)cc1)CCCC2` (stereo not drawn), with 3 nmol/mL. As for `O=C1C2=C(CCCC2)C(=O)N1c1ccc(Cl)cc1` [CHLOROPHTHALIUM], the Activity came to 12 nmol/mL. With `CC(C)OC(=O)c1cc(-n2c(=O)c3c([s+]2[O-])CCCC3)ccc1Cl` (stereo not drawn), the Activity was 3 nmol/mL.

A further test has as its target T1, Protoporphyrinogen IX oxidase (Zea mays) (UniProt Q9FYV8).
T1 sequence (whole entry): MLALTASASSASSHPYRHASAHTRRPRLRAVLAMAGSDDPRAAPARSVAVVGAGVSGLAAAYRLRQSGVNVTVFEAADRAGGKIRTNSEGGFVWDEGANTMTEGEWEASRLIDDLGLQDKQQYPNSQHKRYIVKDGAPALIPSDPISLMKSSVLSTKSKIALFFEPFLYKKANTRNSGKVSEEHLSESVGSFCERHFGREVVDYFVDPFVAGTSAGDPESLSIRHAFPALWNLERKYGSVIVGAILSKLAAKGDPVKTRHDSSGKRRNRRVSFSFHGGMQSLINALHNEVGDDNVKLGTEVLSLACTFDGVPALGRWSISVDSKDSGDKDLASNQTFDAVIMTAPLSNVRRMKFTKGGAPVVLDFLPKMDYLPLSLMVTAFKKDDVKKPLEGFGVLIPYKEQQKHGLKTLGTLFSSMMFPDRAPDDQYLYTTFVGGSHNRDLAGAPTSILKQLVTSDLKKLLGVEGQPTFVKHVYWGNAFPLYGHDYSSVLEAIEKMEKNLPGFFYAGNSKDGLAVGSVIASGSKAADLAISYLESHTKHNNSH
In words: Inhibition of protoporphyrinogen IX oxidase in Zea mays cv. DK212MF (maize) seedlings assessed as protoporphyrin IX formation at 10 uM after 5 min by spectrophotometry.
Take `O=c1c2c(sn1-c1ccc(Cl)cc1)CCCC2`: the inhibition came out at 11.2%.

A word on the inhibition: it is the share of the control response that was lost under treatment.
